Assay [1] can be described thus: CEM21 lymphoblast cell cytotoxicity, dose response, cytotoxicity control for viral fusion inhibitor project, CellTiter-Glo luminescence, cherry-picked (AID 652042).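 Also: potency for signal decrease meaning cytotoxicity.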 It is filed as functional, cell-based. Background: Cellular ATP, detected with luciferase, serves as a proxy for viable cell number.
Assay [2] is described as follows: off-target signal loss in HeLa-CEM21 co-culture – HeLa F-luc CTL cells, cherry-picked, counter-screen for HIV-1 Env fusion inhibitor project, dose response (AID 652040).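 Also: potency for signal decrease marking cytotoxic or nonspecific inhibition.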 It is filed as functional, cell-based.
The nature of assay [3]: inhibitors of clade B AD8 Env fusion, dose response, cell-based, cherry-pick (AID 652062).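 Also: luciferase signal from cell-cell fusion driven by HIV-1 clade B AD8 Env; potency is for inhibitors of fusion seen as a drop in luminescence.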 In kind it is functional.
The nature of assay [4]: inhibitors of HIV Env-driven cell fusion, dose response, cherry-pick (AID 652057). It is filed as functional, cell-based.
In a further assay the test system is Jurkat. The assay is described as follows: antigen receptor-induced NF-kB inhibitors, dose response, Jurkat, luciferase reporter, luminescence, B- and T-cell (AID 489004).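 Also: NF-kB luciferase reporter Jurkat cells stimulated with PMA plus ionomycin.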 In kind it is functional, cell-based. As to conditions: Homo sapiens.
Assay [5] concerns BJ. Description: cells. In kind it is functional, cell-based. As to conditions: Homo sapiens.
A short description of assay [6]: HEK293 cell cytotoxicity, dose response, cytotoxicity control, plate reader, cherry-picked samples (AID 743446). In kind it is functional, cell-based.
The test system of assay [7] is H4. The assay is described as follows: Inhibitors of Prion Protein 5' UTR mRNA Measured in Cell-Based System Using Plate Reader - 2078-01_Inhibitor_Dose_DryPowder_Activity. [Related pubchem assays (depositor defined):AID488894]. It is filed as functional. Conditions: Homo sapiens.
Assay [8] is described as follows: HepG2 cell cytotoxicity, dose response, cytotoxicity control, plate reader, cherry-pick, antagonist series (AID 743416). It is filed as functional, cell-based.
Assay [9] deals with BJ. The assay is described as follows: cytotoxicity toward BJ-TERT-LT-ST fibroblasts, dose response, cell-based, RAS-independent, luminescence (AID 1935).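 Also: BJ fibroblasts immortalized with TERT plus LT and ST oncogenes.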 In kind it is functional. As to conditions: Homo sapiens.
Assay [10] is described as follows: cytotoxicity in HEK-293T NF-kB-Luc cells, dose response, cytotoxicity control for B/T-cell NF-kB inhibitor project, cell-based, uHTS hits (AID 489019).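 Also: IC50 reflects cytotoxicity as loss of cell viability.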 It is filed as functional.
The next assay deals with INS1. The assay is described as follows: beta cell apoptosis inhibitors, cytokine rescue, dose response, luminescence, retest (AID 449756).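 Also: cell death triggered by IL-1 beta plus TNF-alpha plus IFN-gamma mixture; protective hits raise ATP signal compared with cytokine alone wells.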 In kind it is functional, cell-based. As to conditions: Rattus norvegicus.
In assay [11] the test system is H4. The assay is described as follows: inhibitors of control reporter signal in H4 cells – cell-based, plate reader, dry powder samples, counter-screen for prion reporter project, dose response (AID 540255). In kind it is functional. Conditions: Homo sapiens. Background: The purpose of a counterscreen is to sort out artefacts and off-target activity.
Assay [12] in a line: MC4R antagonists, dose response, counter-screen for LGR2 antagonist project, cell-based, plate reader, cherry pick (AID 743444).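 Also: transfected HEK 293 cells stimulated with alpha-MSH peptide; potency of inhibitors of the alpha-MSH evoked signal.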 It is filed as functional.
Assay [13] in a line: cytotoxicity toward DRD oncogenic fibroblasts, dose response, cell-based, non-viral oncogenic, luminescence (AID 1934). In kind it is functional. Conditions: Homo sapiens.
The target in assay [14] is T1, Luciferin 4-monooxygenase (Photinus pyralis, UniProt P08659). The assay is described as follows: firefly luciferase enzyme inhibitors, dose response, biochemical, luminescence (AID 1891).
The target in assay [15] is T1, Luciferin 4-monooxygenase. Description: firefly luciferase enzyme inhibitors, dose response, biochemical, dry powder samples, plate reader (AID 588451).
Assay [16] can be described thus: ZM109 Env clade C HIV-1 fusion inhibitors, dose response, HeLa effector, CEM target cells, luciferase, cherry-pick (AID 652058). It is filed as functional, cell-based.
Assay [17] concerns BJ. Description: cytotoxicity toward BJ-TERT fibroblasts, dose response, cell-based, RAS-independent, luminescence (AID 1933). It is filed as functional. As to conditions: Homo sapiens.
The nature of assay [18]: A549 cell cytotoxicity, dose response, cytotoxicity control, plate reader, cherry-pick, antagonist series (AID 743412). It is filed as functional, cell-based.
The nature of assay [19]: Shn3 3'UTR reporter inhibitors, dose response, cell-based, Clone20 osteoblasts, firefly luciferase, cherry-picked (AID 624132).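 Also: firefly luciferase luminescence from reporter carrying the Shn3 3'UTR in osteoblasts.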 In kind it is functional.
For assay [20], the target named is Heat shock protein HSP 90-alpha (Homo sapiens, UniProt P07900). It is filed as functional, organism-based.
Assay [21] in a line: HepG2 cell cytotoxicity, dose response, cytotoxicity control for Shn3 inhibitor project, CellTiter-Glo, cherry-picked (AID 624134). It is filed as functional, cell-based.
The nature of assay [22]: LGR2 antagonists, dose response, cell-based, HEK293, CRE-luciferase reporter, cherry pick, set 2 (AID 743343).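 Also: transfected cells were stimulated with diluted bursicon conditioned medium after compound addition.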 In kind it is functional. (In general: A reporter such as luciferase makes a cellular process visible.)
Assay [23] has as its system BJ. The assay is described as follows: cytotoxicity toward Ras-transformed BJeLR fibroblasts, dose response, cell-based, alamar blue fluorescence, cherrypicked samples (AID 2631).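 Also: confirmatory dose-response assay in RAS-dependent BJ fibroblasts engineered with TERT, LT and ST, with cytotoxicity read by fluorescence.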 It is filed as functional. As to conditions: Homo sapiens.
Assay [24] can be described thus: Luminescence Cell-Based Dose Confirmation HTS to Identify Inhibitors of Platelet Dense Granule Release. [Related pubchem assays: 1663 (Primary HTS), 1678 (Summary of Project)]. It is filed as functional.
Assay [25] has as its system H4. The assay is described as follows: Amyloid Precursor 5' UTR neuroblastoma cell reporter line Measured in Cell-Based System Using Plate Reader - 2078-04_Inhibitor_Dose_DryPowder_Activity. [Related pubchem assays (depositor defined):AID488894]. Conditions: Homo sapiens. In kind it is functional.
Assay [26] concerns the target DNA dC->dU-editing enzyme APOBEC-3A (Homo sapiens, UniProt P31941). Description: SAR analysis of small molecule inhibitors of APOBEC3A DNA Deaminase via a fluorescence-based single-stranded DNA deaminase assay - Set 2. It is filed as functional. Conditions: read-out: IC50_Mean.
Assay [27] deals with DNA dC->dU-editing enzyme APOBEC-3G (Homo sapiens, UniProt Q9HC16). The assay is described as follows: SAR analysis of small molecule inhibitors of APOBEC3G DNA Deaminase via a fluorescence-based single-stranded DNA deaminase assay - Set 2. In kind it is functional. Conditions: read-out: IC50_Mean.
Assay [28] has as its target T2, High affinity choline transporter 1 (Homo sapiens, UniProt Q9GZV3).
T2 sequence (Q9GZV3 whole entry): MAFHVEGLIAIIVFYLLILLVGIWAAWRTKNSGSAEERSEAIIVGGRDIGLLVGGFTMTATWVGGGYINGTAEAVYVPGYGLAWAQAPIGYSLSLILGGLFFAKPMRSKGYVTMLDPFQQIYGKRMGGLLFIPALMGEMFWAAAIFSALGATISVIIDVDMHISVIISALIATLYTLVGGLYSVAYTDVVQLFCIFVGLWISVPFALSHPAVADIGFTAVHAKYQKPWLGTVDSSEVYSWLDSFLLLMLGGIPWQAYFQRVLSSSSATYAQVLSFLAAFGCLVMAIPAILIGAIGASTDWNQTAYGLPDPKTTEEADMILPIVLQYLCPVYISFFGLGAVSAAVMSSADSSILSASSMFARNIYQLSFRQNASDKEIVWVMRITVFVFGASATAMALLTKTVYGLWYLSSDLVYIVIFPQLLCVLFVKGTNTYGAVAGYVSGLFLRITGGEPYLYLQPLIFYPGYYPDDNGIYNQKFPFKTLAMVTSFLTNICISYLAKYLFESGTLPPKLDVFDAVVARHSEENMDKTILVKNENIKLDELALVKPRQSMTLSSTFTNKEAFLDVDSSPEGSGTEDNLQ
Description: CHT activators, dose response, cell-based, 10-point CRC, membrane potential dye (AID 602376). It is filed as functional.

Assay [29] can be described thus: inhibitors of SNCA 5'UTR-driven reporter translation, confirmation, H4 neuroglioma cells, luminescence (AID 1988). In kind it is functional, cell-based.
Assay [30] has as its target Serine/threonine-protein phosphatase (Candida dubliniensis (strain CD36 / CBS 7987 / NCPF 3949 / NRRLY-17841) (Yeast), UniProt B9W6M3). The assay is described as follows: calcineurin pathway inhibitors in yeast reporter, dose response, S. cerevisiae, CDRE-lacZ, luminescence, secondary (AID 2388).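 Also: yeast reporter cells carrying a calcineurin-responsive lacZ construct stimulated with calcium chloride; luminescent beta-galactosidase reporter signal in whole cells rather than isolated phosphatase activity; potency for inhibition where a drop in reporter signal means calcineurin blockade.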 In kind it is functional, cell-based.
A short description of assay [31]: C. albicans growth with fluconazole, confirmation, fluorescence, retest (AID 2467). In kind it is functional, cell-based.
Assay [32] can be described thus: Luminescence Cell-Based Dose Response HTS to Identify Inhibitors of 5'UTR Stem-Loop Driven Prion Protein mRNA Translation in H4 Neuroglioblastoma Cells. [Related pubchem assays: 1827 (Project Summary), 1813 (Primary HTS)]. It is filed as functional.
The nature of assay [33]: NIH-3T3 fibroblast cytotoxicity, dose response, cytotoxicity control, cell-based, fluorescence, Alamar Blue, secondary assay (AID 2327).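 Also: NIH-3T3 mouse fibroblasts cultured with fluconazole at 8 µg/mL.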 In kind it is functional.
A short description of assay [34]: inhibitors of firefly luciferase expression or activity, dose response, H4 neuroglioma cells, luminescence (AID 1990). It is filed as functional, cell-based.
In assay [35] the target is ATP-dependent molecular chaperone HSP82 (Candida albicans (strain WO-1) (Yeast), UniProt C4YTQ8). Description: loss of DOC-induced GRE-beta-galactosidase reporter signal, dose response, Hsp90 inhibitor project, S. cerevisiae, luminescence (AID 2400).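 Also: beta-galactosidase luminescence from glucocorticoid response element reporter as proxy for Hsp90 function; inhibitor potency where signal loss means Hsp90 inhibition.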 In kind it is functional, cell-based.
Another assay concerns HEK293. The assay is described as follows: cells. It is filed as functional, cell-based. Conditions: Homo sapiens.
Assay [36] deals with Nuclear receptor subfamily 0 group B member 1 (Homo sapiens, UniProt P51843). Description: Luminescence-based cell-based high throughput dose response assay for inhibitors of the orphan nuclear receptor subfamily 0, group B, member 1 (DAX1; NR0B1). [Related pubchem assays (depositor defined):AID504766, AID504790]. It is filed as functional.

Data on five compounds can be found in ChEMBL document CHEMBL1201862, “PubChem BioAssay data set” (2004).

Calls of active or inactive are those of the source. Where only a bound is given, the exact number is not on record here.

T1 sequence (P08659 whole entry): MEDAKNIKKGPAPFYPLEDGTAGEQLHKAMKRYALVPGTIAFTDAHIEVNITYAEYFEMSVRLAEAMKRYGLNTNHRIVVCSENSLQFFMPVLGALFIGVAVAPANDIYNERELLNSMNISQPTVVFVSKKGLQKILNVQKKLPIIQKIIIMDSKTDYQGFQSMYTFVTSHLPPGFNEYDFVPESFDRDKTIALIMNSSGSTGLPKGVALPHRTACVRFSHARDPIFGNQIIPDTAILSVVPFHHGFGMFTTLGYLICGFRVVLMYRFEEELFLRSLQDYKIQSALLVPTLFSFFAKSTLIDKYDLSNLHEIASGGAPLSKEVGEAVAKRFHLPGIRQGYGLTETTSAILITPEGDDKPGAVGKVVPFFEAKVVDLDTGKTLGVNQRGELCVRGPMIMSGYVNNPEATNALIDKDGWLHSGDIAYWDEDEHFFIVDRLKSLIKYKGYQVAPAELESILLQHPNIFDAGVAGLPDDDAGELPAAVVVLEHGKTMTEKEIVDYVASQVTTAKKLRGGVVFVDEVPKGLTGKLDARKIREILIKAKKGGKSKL
DNA dC->dU-editing enzyme APOBEC-3G, sequence (Q9HC16 whole entry): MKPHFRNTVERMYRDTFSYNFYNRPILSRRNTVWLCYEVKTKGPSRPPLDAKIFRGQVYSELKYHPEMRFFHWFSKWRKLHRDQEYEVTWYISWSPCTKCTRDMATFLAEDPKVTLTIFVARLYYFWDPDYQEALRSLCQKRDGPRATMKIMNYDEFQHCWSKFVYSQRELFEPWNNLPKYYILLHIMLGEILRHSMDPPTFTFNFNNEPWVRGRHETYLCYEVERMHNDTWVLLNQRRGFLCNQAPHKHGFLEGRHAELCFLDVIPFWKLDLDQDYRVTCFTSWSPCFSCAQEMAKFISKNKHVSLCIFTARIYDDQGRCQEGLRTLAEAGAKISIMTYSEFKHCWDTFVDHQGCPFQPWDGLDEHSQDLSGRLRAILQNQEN
Serine/threonine-protein phosphatase, sequence (B9W6M3 whole entry): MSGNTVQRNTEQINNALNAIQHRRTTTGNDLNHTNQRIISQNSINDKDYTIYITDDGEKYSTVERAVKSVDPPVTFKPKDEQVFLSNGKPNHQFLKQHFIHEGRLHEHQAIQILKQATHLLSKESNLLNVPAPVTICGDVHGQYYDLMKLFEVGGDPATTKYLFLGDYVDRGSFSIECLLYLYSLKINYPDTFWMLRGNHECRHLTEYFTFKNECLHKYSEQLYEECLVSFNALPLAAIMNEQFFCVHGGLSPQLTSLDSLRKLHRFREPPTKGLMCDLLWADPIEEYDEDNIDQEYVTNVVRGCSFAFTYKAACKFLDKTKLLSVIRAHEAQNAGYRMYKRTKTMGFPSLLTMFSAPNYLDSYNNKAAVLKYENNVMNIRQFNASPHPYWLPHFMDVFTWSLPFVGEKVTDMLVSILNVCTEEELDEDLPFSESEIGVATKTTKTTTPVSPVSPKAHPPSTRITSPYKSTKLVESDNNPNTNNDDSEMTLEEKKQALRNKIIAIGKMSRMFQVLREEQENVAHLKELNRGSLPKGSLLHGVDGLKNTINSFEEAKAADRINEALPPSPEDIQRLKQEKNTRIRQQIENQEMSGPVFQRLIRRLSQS
ATP-dependent molecular chaperone HSP82, sequence (C4YTQ8 whole entry): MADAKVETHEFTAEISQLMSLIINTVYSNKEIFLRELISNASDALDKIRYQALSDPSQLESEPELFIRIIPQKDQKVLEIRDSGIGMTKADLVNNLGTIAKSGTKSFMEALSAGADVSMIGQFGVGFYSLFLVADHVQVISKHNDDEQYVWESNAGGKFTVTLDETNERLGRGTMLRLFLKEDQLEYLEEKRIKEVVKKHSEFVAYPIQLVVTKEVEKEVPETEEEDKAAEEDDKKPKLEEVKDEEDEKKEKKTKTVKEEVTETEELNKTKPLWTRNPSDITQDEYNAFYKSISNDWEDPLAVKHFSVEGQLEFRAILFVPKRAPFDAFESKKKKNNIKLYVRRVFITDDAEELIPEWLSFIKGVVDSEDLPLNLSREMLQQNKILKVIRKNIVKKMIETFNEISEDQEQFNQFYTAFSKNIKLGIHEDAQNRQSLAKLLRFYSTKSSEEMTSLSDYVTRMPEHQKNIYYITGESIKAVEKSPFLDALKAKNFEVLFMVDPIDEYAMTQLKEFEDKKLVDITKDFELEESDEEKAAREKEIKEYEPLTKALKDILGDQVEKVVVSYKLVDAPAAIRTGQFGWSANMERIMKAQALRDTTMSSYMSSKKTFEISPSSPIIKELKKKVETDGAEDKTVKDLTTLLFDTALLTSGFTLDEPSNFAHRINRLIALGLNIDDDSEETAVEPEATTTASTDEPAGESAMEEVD
Nuclear receptor subfamily 0 group B member 1, sequence (P51843 whole entry): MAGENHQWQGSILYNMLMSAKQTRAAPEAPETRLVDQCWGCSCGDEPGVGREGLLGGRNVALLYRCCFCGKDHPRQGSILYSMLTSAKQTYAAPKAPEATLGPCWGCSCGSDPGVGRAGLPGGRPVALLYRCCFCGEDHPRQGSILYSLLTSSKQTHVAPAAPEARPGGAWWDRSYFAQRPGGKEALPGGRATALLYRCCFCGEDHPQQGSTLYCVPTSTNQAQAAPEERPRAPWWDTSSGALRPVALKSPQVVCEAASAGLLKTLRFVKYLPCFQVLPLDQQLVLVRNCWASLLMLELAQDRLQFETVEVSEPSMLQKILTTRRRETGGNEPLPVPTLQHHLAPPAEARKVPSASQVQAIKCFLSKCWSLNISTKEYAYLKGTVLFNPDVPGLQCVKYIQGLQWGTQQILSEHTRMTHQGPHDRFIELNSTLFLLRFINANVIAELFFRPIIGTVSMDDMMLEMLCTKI
DNA dC->dU-editing enzyme APOBEC-3A, sequence (P31941 whole entry): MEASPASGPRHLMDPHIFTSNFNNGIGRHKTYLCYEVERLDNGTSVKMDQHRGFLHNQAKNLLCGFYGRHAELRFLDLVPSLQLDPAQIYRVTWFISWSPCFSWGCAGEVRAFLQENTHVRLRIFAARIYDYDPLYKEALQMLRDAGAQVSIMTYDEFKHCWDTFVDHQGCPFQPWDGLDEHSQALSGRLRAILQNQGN

As for `COc1cc(SC)ccc1C(=O)Nc1nc2ccccc2[nH]1`, the AC50 in [1] was 1280 nM (active); in assay [2], 513 nM (active); in assay [3] it was 319 nM (active); in assay [4] it was 260 nM (active); in assay [6], 3350 nM (active); with H4 [7] it was 28 nM (active). The AC50 in assay [8] is 14500 nM (active); in the assay on INS1, 1120 nM (active); with H4 [11], 885 nM (active); in assay [12], < 68 nM (active); in assay [15] it was 9.03 nM (active); in assay [16], 1980 nM (active). For the same compound, the AC50 in [18] was 2520 nM (active); in assay [19], < 260 nM (active); in [20] it was 1420 nM (active); in assay [21] it was 28500 nM (active); in [22], < 68 nM (active); in the assay with H4 [25], < 0.015 nM (active). The IC50 is < 160 nM (active) in the assay on Jurkat and > 80000 nM (inactive) in assay [10]. Also, the EC50 is 1260 nM (active) in the assay on BJ [5]; 2260 nM (active) in the assay on BJ [9]; 930 nM (active) in assay [13]; 152 nM (active) in [14]; 1020 nM (active) in the assay on BJ [17]; > 133000 nM (inactive) with BJ [23]. Moreover, the EC50 in assay [24] was 240 nM (active).
For the compound `Cc1ccc(-c2csc3nnc(SCCOc4ccccc4)n23)cc1`, the IC50 in [26] and in [27] was > 99000 nM (inactive) in each case.
On to `O=C(c1cccc(C(F)(F)F)c1)C1CCCN(Cc2cccn2-c2ncccn2)C1` (stereo not given), for which the EC50 in assay [28] is 6690 nM (active).
Regarding `C/C(=N\NC(=O)c1cc(C2CC2)nc2ccccc12)c1ccc(O)cc1O`, the EC50 in assay [29] is 5570 nM (inconclusive); in assay [30], > 180000 nM (inactive); in assay [31], 2460 nM (active); in assay [32], 11400 nM (active); in assay [33], 12900 nM (inconclusive); in assay [34], 11700 nM (active). In [35], the EC50 was > 160000 nM (inactive). Moreover, in the assay with INS1, the AC50 was 1010 nM (active).
As to `CCCCNC(=O)Nc1nc2ccccc2s1`, the IC50 (in the assay with HEK293; in [36]) was > 67500 nM (inactive) throughout.

The AC50 is the concentration giving half of the maximal activity seen. As a reminder, the EC50 is the concentration at which the effect is half-maximal.
